Data set [1] addresses T1, KDM4E (JMJD2E); KDM4E(1-377) (Homo sapiens, UniProt B2RXH2).
T1 construct: residues 1-377 (JmjN and JmjC domains); recombinant, E. coli BL21(DE3)-R3 with pRARE2
T1 sequence (B2RXH2 1-377): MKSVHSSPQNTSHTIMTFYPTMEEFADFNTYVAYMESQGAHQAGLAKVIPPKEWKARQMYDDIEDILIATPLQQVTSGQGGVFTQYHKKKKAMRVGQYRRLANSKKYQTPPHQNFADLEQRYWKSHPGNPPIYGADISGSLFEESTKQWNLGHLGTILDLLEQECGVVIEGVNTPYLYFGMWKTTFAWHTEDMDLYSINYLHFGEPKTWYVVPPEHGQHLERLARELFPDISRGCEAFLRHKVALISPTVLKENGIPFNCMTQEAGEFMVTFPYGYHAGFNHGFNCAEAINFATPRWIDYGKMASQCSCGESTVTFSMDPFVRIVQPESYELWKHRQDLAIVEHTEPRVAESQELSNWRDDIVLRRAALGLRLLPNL
Description: RapidFire MS demethylation assay. It is filed as biochemical. The note with it: read-out: pIC50 ± s.e.m. / inhibition of H3(1-15)K9me2 demethylation (converted).

Data set [2] addresses T1, KDM4E (JMJD2E); KDM4E(1-377). The data set is described as follows: RapidFire MS demethylation assay. Format: biochemical. The note with it: KDM activity: 5 µM H3(1-15)K9me2, 0.25 µM enzyme, 10 µM Fe(II), 100 µM ascorbate, 10 µM 2OG, 50 mM HEPES pH 7.5, 15 min; iron chelator, may act by chelating iron in solution; unreliable (printed s.e.m). From the text:
RapidFire MS demethylation assay on KDM4E (JMJD2E); KDM4E(1-377)

Substrate in data set [3]: O=C(O)CCC(=O)C(=O)O
The data set is described as follows: steady-state kinetics (supplement). It is filed as biochemical, Homo sapiens. The note with it: 50 mM HEPES pH 7.5, Fe(II), ascorbate, approximate value, peptide substrate not stated.

The values below come from article PMC5915715, “Inhibitors of both the N-methyl lysyl- and arginyl-demethylase activities of the JmjC oxygenases” (Philosophical Transactions of the Royal Society B: …, 2018).

In the case of `CC(C)c1c(-c2ccccc2)[nH]c2c(C#N)cnn2c1=O` [CPI-455], the IC50 in data set [1] was 4.47 µM. Same read-out and setting: as for `O=C(O)CC[C@@H](O)C(=O)O` [D-2HG], the figure is 11.5 µM. With `O=C(O)CN(CCN(CC(=O)O)CC(=O)O)CC(=O)O` [EDTA], the “pIC50 ± s.e.m. / inhibition of H3(1-15)K9me2 demethylation” value in data set [2] was 5.82 ± 6.53 -log10(M). As to `CCN(CCN(C)C)C(=O)CNCc1cc(C(=O)O)ccn1` [KDM5-C49], in data set [1], the IC50 was 2.09 µM.

`CCN(CCN(C)C)C(=O)CNCc1cc(C(N)=O)ccn1` [KDOAM25]: the IC50 in data set [1] is 182 µM. As for `O=C(O)CC[C@H](O)C(=O)O` [L-2HG], the IC50 in data set [1] is 13.5 µM. The same measure, in the same setting: then `CN(C)CCCNC(=O)c1ccc(-c2cc(O)c3ncccc3c2)cc1` [ML324], with 4.79 µM; and `CC(=O)N(O)CCCCCNC(=O)CCC(=O)N(O)CCCCCNC(=O)CCC(=O)N(O)CCCCCN` [deferoxamine], with 2.4 µM. On to `O=C(O)/C=C/C(=O)O` [fumarate], for which, in data set [1], the IC50 was 1950 µM. `O=C(O)CCC(=O)O` [succinate]: the IC50 in data set [1] was 148 µM.

B1: KDM4E (JMJD2E); KDM4E(1-377) (Homo sapiens) (protein)
chain: T1 sequence (B2RXH2 1-377)
notes: residues 1-377 (JmjN and JmjC domains); recombinant, E. coli BL21(DE3)-R3 with pRARE2
In the case of B1, the Km in data set [3] was 10 µM.
